The values below come from US10160729B2, “Hsp70 modulators and methods for making and using the same” (Memorial Sloan Kettering Cancer Center, priority 2014, dated 2018).

The experiment has as its system MOLM-13 cells. As to the kind of experiment: Caspase cleavage assay (Caspase3, 7 activation). In kind it is cell-based. Particulars: Homo sapiens, 16 h treatment, caspase substrate Z-DEVD-R110, read-out: c* Concentration at which 50% of the maximum signal was achieved (caspase activation). As for the experimental part: Caspase3, 7 Activation. MOLM-13 cells (30,000 cells/well) were plated in black 96-well plates (Corning Cat. #3603) in 40 μL of RPMI media, and left in an incubator (37° C., 5% CO2) for up to 24 h. Cells were treated for 16 h with compounds or DMSO (control) at desired concentrations in 50 μL of media. Drugs were added in triplicate wells. Following exposure of cells to Hsp70 inhibitors, 50 μL of buffer containing 10 mM HEPES (pH 7.5), 2 mM EDTA, 0.1% CHAPS and the caspase substrate Z-DEVD-R110 at 25 μM was added to each well. Plates were incubated until the signal stabilized and then the fluorescence signal of each well was measured in an Analyst GT microplate reader. The percentage increase in apoptotic cells was calculated by comparison of the fluorescence reading obtained from treated versus control cells.
For `CN1CCN(c2ncc(Sc3ccc(C(N)=O)cc3)c(OCc3cccc(N(C)C)c3)n2)CC1` [100a, 4-((4-((3-(Dimethylamino)benzyl)oxy)-2-(4-methylpiperazin-1-yl)pyrimidin-5-yl)thio)benzamide], the EC50 was less than 200 nM.
To `CN1CCN(c2ncc(Sc3ccc(C(N)=O)cc3)c(OCc3cccc(N4CCCC4)c3)n2)CC1` [100b, 4-((2-(4-Methylpiperazin-1-yl)-4-((3-(pyrrolidin-1-yl)benzyl)oxy)pyrimidin-5-yl)thio)benzamide] belongs 200 to 400 nM; to `CN1CCN(c2ncc(Sc3ccc(C(N)=O)cc3)c(OCc3ccc(F)c(N(C)C)c3)n2)CC1` [100c, 4-((4-((3-(Dimethylamino)-4-fluorobenzyl)oxy)-2-(4-methylpiperazin-1-yl)pyrimidin-5-yl)thio)benzamide], less than 200 nM; to `CC(Oc1nc(N2CCN(C)CC2)ncc1Sc1ccc(C(N)=O)cc1)c1cccc(N(C)C)c1` (stereo not shown) [100d, 4-((4-(1-(3-(Dimethylamino)phenyl)ethoxy)-2-(4-methylpiperazin-1-yl)pyrimidin-5-yl)thio)benzamide], not below 1200 nM.
To `CN1CCN(c2ncc(Sc3ccc(C(N)=O)cc3)c(OCc3cccc(NC4CC4)c3)n2)CC1` [100e, 4-((4-((3-(Cyclopropylamino)benzyl)oxy)-2-(4-methylpiperazin-1-yl)pyrimidin-5-yl)thio)benzamide] belongs less than 200 nM; to `CN1CCN(c2ncc(Sc3ccc(C(N)=O)cc3)c(OCc3cccc(-n4cccn4)c3)n2)CC1` [100f, 4-((4-((3-(1H-Pyrazol-1-yl)benzyl)oxy)-2-(4-methylpiperazin-1-yl)pyrimidin-5-yl)thio)benzamide], 400 to 1000 nM; to `COc1cccc(COc2nc(N3CCN(C)CC3)ncc2Sc2ccc(C(N)=O)cc2)c1` [100g, 4-((4-((3-Methoxybenzyl)oxy)-2-(4-methylpiperazin-1-yl)pyrimidin-5-yl)thio)benzamide], less than 200 nM.
For `CN1CCN(c2ncc(Sc3ccc(C(N)=O)cc3)c(OCCc3ccccc3)n2)CC1` [100h, 4-((2-(4-Methylpiperazin-1-yl)-4-phenethoxypyrimidin-5-yl)thio)benzamide], the EC50 lay in the range of 200 to 400 nM.
`CN1CCN(c2ncc(Sc3ccc(C(N)=O)cc3)c(OCc3ccco3)n2)CC1` [100i, 4-((4-(Furan-2-ylmethoxy)-2-(4-methylpiperazin-1-yl)pyrimidin-5-yl)thio)benzamide]: the EC50 is 400 to 1000 nM.
As for `CN1CCN(c2ncc(Sc3ccc(C(N)=O)cc3)c(OCc3ccoc3)n2)CC1` [100j, 4-((4-(Furan-3-ylmethoxy)-2-(4-methylpiperazin-1-yl)pyrimidin-5-yl)thio)benzamide], the EC50 lay within 200 to 400 nM.
To `CN1CCN(c2ncc(Sc3ccc(C(N)=O)cc3)c(OCc3ccc(F)cc3)n2)CC1` [100m, 4-((4-((4-Fluorobenzyl)oxy)-2-(4-methylpiperazin-1-yl)pyrimidin-5-yl)thio)benzamide] belongs 200 to 400 nM; to `C[C@H](Oc1nc(N2CCN(C)CC2)ncc1Sc1ccc(C(N)=O)cc1)c1ccc(F)cc1` [100n, (S)-4-((4-(1-(4-Fluorophenyl)ethoxy)-2-(4-methylpiperazin-1-yl)pyrimidin-5-yl)thio)benzamide], not below 1200 nM.
Take `C[C@@H](Oc1nc(N2CCN(C)CC2)ncc1Sc1ccc(C(N)=O)cc1)c1ccc(F)cc1` [100o, (R)-4-((4-(1-(4-Fluorophenyl)ethoxy)-2-(4-methylpiperazin-1-yl)pyrimidin-5-yl)thio)benzamide]: the EC50 was not below 1200 nM.
Regarding `CC(=O)c1cccc(COc2nc(N3CCN(C)CC3)ncc2Sc2ccc(C(N)=O)cc2)c1` [100q, 4-((4-((3-Acetylbenzyl)oxy)-2-(4-methylpiperazin-1-yl)pyrimidin-5-yl)thio)benzamide], the EC50 was 400 to 1000 nM.
For `CN1CCN(c2ncc(Sc3ccc(C(N)=O)cc3)c(OCc3ccnc(N)c3)n2)CC1` [100r, 4-((4-((2-Aminopyridin-4-yl)methoxy)-2-(4-methylpiperazin-1-yl)pyrimidin-5-yl)thio)benzamide], the EC50 lay in the range of 1000 to 1200 nM.
As to `CN1CCN(c2ncc(Sc3ccc(C(N)=O)cc3)c(OCc3cccc(I)c3)n2)CC1` [100s, 4-((4-((3-Iodobenzyl)oxy)-2-(4-methylpiperazin-1-yl)pyrimidin-5-yl)thio)benzamide], the EC50 lay in the range of 200 to 400 nM.
In the case of `[2H]c1c([2H])c([2H])c(COc2nc(N3CCN(C)CC3)ncc2Sc2ccc(C(N)=O)cc2)c([2H])c1[2H]` [100t, 4-((4-(Benzyloxy-d5)-2-(4-methylpiperazin-1-yl)pyrimidin-5-yl)thio)benzamide], the EC50 was in the range of 400 to 1000 nM.
For the molecule `[2H]C([2H])(Oc1nc(N2CCN(C)CC2)ncc1Sc1ccc(C(N)=O)cc1)c1ccccc1` [100u, 4-((4-(Benzyloxy-d2)-2-(4-methylpiperazin-1-yl)pyrimidin-5-yl)thio)benzamide], the EC50 was in the range of 400 to 1000 nM.
As for `CN1CCN(c2ncc(Sc3ccc(C(N)=O)cc3)c(OCc3ccc(I)cc3)n2)CC1` [100v, 4-((4-((4-Iodobenzyl)oxy)-2-(4-methylpiperazin-1-yl)pyrimidin-5-yl)thio)benzamide], the EC50 was not below 1200 nM.
To `CN1CCN(c2ncc(Sc3ccc(C(N)=O)cc3)c(OCc3cccc(C(N)=O)c3)n2)CC1` [100w, 3-(((5-((4-Carbamoylphenyl)thio)-2-(4-methylpiperazin-1-yl)pyrimidin-4-yl)oxy)methyl)benzamide] belongs 400 to 1000 nM.
For `CN1CCN(c2ncc(Sc3ccc(C(N)=O)cc3)c(OCc3cccc(N)c3)n2)CC1` [100x, 4-((4-((3-Aminobenzyl)oxy)-2-(4-methylpiperazin-1-yl)pyrimidin-5-yl)thio)benzamide], the EC50 is less than 200 nM.
Consider `CN1CCN(c2ncc(Sc3ccc(N)nc3)c(OCc3ccc(F)cc3)n2)CC1` [146c, 5-((4-((4-Fluorobenzyl)oxy)-2-(4-methylpiperazin-1-yl)pyrimidin-5-yl)thio)pyridin-2-amine], for which the EC50 lay in the range of 200 to 400 nM.
For `CN1CCN(c2ncc(Sc3ccc(N)nc3)c(OCc3cccc(C(F)(F)F)c3)n2)CC1` [146e, 5-((2-(4-Methylpiperazin-1-yl)-4-((3-(trifluoromethyl)benzyl)oxy)pyrimidin-5-yl)thio)pyridin-2-amine], the EC50 fell in the range of 400 to 1000 nM.
With `NC(=O)c1ccc(Sc2cnc(N3CCOCC3)nc2OCc2ccccc2)cc1` [179a], the EC50 was not below 1200 nM.
On to `CN(C)[C@H]1CCN(c2ncc(Sc3ccc(C(N)=O)cc3)c(OCc3ccccc3)n2)C1` [179c, (S)-4-((4-(Benzyloxy)-2-(3-(dimethylamino)pyrrolidin-1-yl)pyrimidin-5-yl)thio)benzamide], for which the EC50 is not below 1200 nM.
Take `CN(C)c1cccc(COc2nc(N3CCOCC3)ncc2Sc2ccc(C(N)=O)cc2)c1` [185a, 4-((4-((3-(Dimethylamino)benzyl)oxy)-2-morpholinopyrimidin-5-yl)thio)benzamide]: the EC50 fell in the range of 1000 to 1200 nM.
Consider `CC(C)N1CCN(c2ncc(Sc3ccc(C(N)=O)cc3)c(OCc3cccc(N(C)C)c3)n2)CC1` [185b, 4-((4-((3-(Dimethylamino)benzyl)oxy)-2-(4-isopropylpiperazin-1-yl)pyrimidin-5-yl)thio)benzamide], for which the EC50 lay within 1000 to 1200 nM.
In the case of `CN(C)c1cccc(COc2nc(N3CCN(CCO)CC3)ncc2Sc2ccc(C(N)=O)cc2)c1` [185d, 4-((4-((3-(Dimethylamino)benzyl)oxy)-2-(4-(2-hydroxyethyl)piperazin-1-yl)pyrimidin-5-yl)thio)benzamide], the EC50 was in the range of 400 to 1000 nM.
